Assay results taken from patent US10798943B2, “Use of 6-anilino purine derivatives to improve heat stress tolerance of rice seedlings” (SYNGENTA PARTICIPATIONS AG, priority 2016, dated 2020).

Columns and labels:
[1] = test system: rice seedlings (hybrid rice variety ADT45) under heat stress; assay: Transplant shock stress, visual assessment of damage severity, Kumbakonam trial; assay type: in vivo; conditions: for Transplanting shock stress (8th day) / Transplanting shock stress (12th day) / Transplanting shock stress (4th day): Kumbakonam
Source text: Trials were setup in two locations in India to test the effect of compounds of formula I on tolerance of rice seedlings to heat stress during transplantation.
For each trial, hybrid rice variety ADT45 was sown in seedling boxes. A compound of formula (Ia) was applied by foliar spray in the form of an EC formulation, at various dose rates and seedling growth stages as shown in Table 1.
Transplanting took place at the […] growth stage. Transplant shock was used as an indicator of tolerance to heat stress, and was measured via visual assessment of damage severity on a scale of 0% (no damage) to 100% (dead plant); observations such as yellowing and leaf tip burning are indicators of damage. Transplant shock was also assessed by measuring NVDI values using a Green Seeker™ crop sensor, which measures the percentage green area. A low transplant shock stress rating and high NVDI rating indicate improved tolerance to transplant shock stress.
The trial was carried out between 7 May 2015 and 15 Jun. 2015, with transplanting on 29 May 2015. The mean maximum daily temperature during the trial period was 37.3° C., and mean minimum daily temperature during the trial period was 24.9° C. The mean temperature during the entire trial period was 31.1° C.

[2] = test system: rice seedlings (hybrid rice variety ADT45); assay: Phytotoxicity assessments at Ramapuram trial; assay type: in vivo; conditions: for Greenness at 3.2 leaf / Seedling height at 3.2 leaf / Seedling injury / Time to 3.2 leaf / Uniformity of foliage growth at 3.2 leaf / Uniformity of greening at 3.2 leaf / Whiteness of root mat at 3.2 leaf: Ramapuram
Description: For each trial, hybrid rice variety ADT45 was sown in seedling boxes. A compound of formula (Ia) was applied by foliar spray in the form of an EC formulation, at various dose rates and seedling growth stages as shown in Table 1. [table] […] The trial was carried out between 5 Aug. 2015 and 9 Sep. 2015, with transplanting on 15 Aug. 2015. The mean maximum daily temperature during the trial period was 35.3° C., and mean minimum daily temperature during the trial period was 23.7° C. The mean temperature during the entire trial period was 30.2° C.

[3] = treatment 2: 5 g ai/ha, Pigeon-breast
[4] = treatment 3: 10 g ai/ha, Pigeon-breast
[5] = treatment 4: 20 g ai/ha, Pigeon-breast
[6] = treatment 6: 10 g ai/ha, 2-leaf
[7] = treatment 7: 20 g ai/ha, 2-leaf
[8] = treatment 9: 10 g ai/ha, 3-leaf
[9] = treatment 10: 20 g ai/ha, 3-leaf

Compound: COc1cccc(Nc2nc(F)nc3[nH]cnc23)c1 [Formula Ia]
- Tolerance to heat stress / transplant shock stress, comparison of treatments ([1]; Kumbakonam trial, treatments 5 and 6 (2-leaf growth stage, 5-10 g ai/ha)): giving the best results
- Transplanting shock stress (8th day) [1, 3]: 35%
- Transplanting shock stress (12th day) [1, 3]: 15%
- Transplanting shock stress (4th day) ([1]; treatment 2: 5 g ai/ha, Pigeon-breast, scale 0% no damage to 100% dead plant): 32%
- Transplanting shock stress (4th day) [1, 4]: 38%
- Transplanting shock stress (8th day) [1, 4]: 32%
- Transplanting shock stress (12th day) [1, 4]: 17%
- Transplanting shock stress (4th day) [1, 5]: 30%
- Transplanting shock stress (8th day) [1, 5]: 22%
- Transplanting shock stress (12th day) [1, 5]: 13%
- Transplanting shock stress (4th day) ([1]; treatment 5: 5 g ai/ha, 2-leaf): 15%
- Transplanting shock stress (8th day) ([1]; treatment 5: 5 g ai/ha, 2-leaf): 13%
- Transplanting shock stress (12th day) ([1]; treatment 5: 5 g ai/ha, 2-leaf): 7%
- Transplanting shock stress (4th day) [1, 6]: 30%
- Transplanting shock stress (8th day) [1, 6]: 22%
- Transplanting shock stress (12th day) [1, 6]: 10%
- Transplanting shock stress (4th day) [1, 7]: 35%
- Transplanting shock stress (8th day) [1, 7]: 37%
- Transplanting shock stress (12th day) [1, 7]: 22%
- Transplanting shock stress (4th day) ([1]; treatment 8: 5 g ai/ha, 3-leaf): 27%
- Transplanting shock stress (8th day) ([1]; treatment 8: 5 g ai/ha, 3-leaf): 32%
- Transplanting shock stress (12th day) ([1]; treatment 8: 5 g ai/ha, 3-leaf): 17%
- Transplanting shock stress (4th day) [1, 8]: 42%
- Transplanting shock stress (8th day) [1, 8]: 27%
- Transplanting shock stress (12th day) [1, 8]: 15%
- Transplanting shock stress (4th day) [1, 9]: 45%
- Transplanting shock stress (8th day) [1, 9]: 37%
- Transplanting shock stress (12th day) [1, 9]: 25%
- Phytotoxic effects to the rice seedlings (summary) ([2]; Ramapuram trial, some marginal effects at the highest dose rate): did not cause any phytotoxic effects
- Greenness at 3.2 leaf [2, 3]: 3 unit
- Seedling height at 3.2 leaf [2, 3]: 13 cm
- Seedling injury [2, 3]: 0%
- Time to 3.2 leaf [2, 3]: 14 days
- Uniformity of foliage growth at 3.2 leaf [2, 3]: 90%
- Uniformity of greening at 3.2 leaf [2, 3]: 95%
- Whiteness of root mat at 3.2 leaf [2, 3]: 90%
- Greenness at 3.2 leaf [2, 4]: 3 unit
- Seedling height at 3.2 leaf [2, 4]: 13 cm
- Seedling injury [2, 4]: 0%
- Time to 3.2 leaf [2, 4]: 14 days
- Uniformity of foliage growth at 3.2 leaf [2, 4]: 90%
- Uniformity of greening at 3.2 leaf [2, 4]: 95%
- Whiteness of root mat at 3.2 leaf [2, 4]: 90%
- Greenness at 3.2 leaf [2, 5]: 3 unit
- Seedling height at 3.2 leaf [2, 5]: 13 cm
- Seedling injury [2, 5]: 0%
- Time to 3.2 leaf [2, 5]: 14 days
- Uniformity of foliage growth at 3.2 leaf [2, 5]: 90%
- Uniformity of greening at 3.2 leaf [2, 5]: 95%
- Whiteness of root mat at 3.2 leaf [2, 5]: 90%
- Greenness at 3.2 leaf ([2]; treatment 5: 5 g ai/ha, 2-leaf): 3 unit
- Seedling height at 3.2 leaf ([2]; treatment 5: 5 g ai/ha, 2-leaf): 15 cm
- Seedling injury ([2]; treatment 5: 5 g ai/ha, 2-leaf): 0%
- Time to 3.2 leaf ([2]; treatment 5: 5 g ai/ha, 2-leaf): 13 days
- Uniformity of foliage growth at 3.2 leaf ([2]; treatment 5: 5 g ai/ha, 2-leaf): 90%
- Uniformity of greening at 3.2 leaf ([2]; treatment 5: 5 g ai/ha, 2-leaf): 95%
- Whiteness of root mat at 3.2 leaf ([2]; treatment 5: 5 g ai/ha, 2-leaf): 85%
- Greenness at 3.2 leaf [2, 6]: 3 unit
- Seedling height at 3.2 leaf [2, 6]: 15 cm
- Seedling injury [2, 6]: 2%
- Time to 3.2 leaf [2, 6]: 13 days
